Source: the NIST ThermoML archive (doi:10.1021/je301123j)

Assay: xn = mol fraction of the nth substance listed
Conditions: for speed of sound / viscosity / mass density: 100 kPa, Liquid; for surface tension liquid-gas: Ring tensiometer

CCN1CCCC1=O [1-ethyl-2-pyrrolidinone] + NCCO
Conditions	mass density, 303.15 K [kg/m3]	mass density, 313.15 K [kg/m3]	mass density, 323.15 K [kg/m3]	speed of sound, 303.15 K [m/s]	speed of sound, 313.15 K [m/s]	speed of sound, 323.15 K [m/s]	surface tension liquid-gas, 313.15 K [mN/m]	viscosity, 303.15 K [mPa·s]	viscosity, 313.15 K [mPa·s]	viscosity, 323.15 K [mPa·s]
x1 = 0.1	–	998.53	990.31	–	1628	1594.2	42.7	–	7.237	5.201
x1 = 0.2002	–	995.42	986.95	–	1582.8	1549.2	40.2	–	5.477	4.011
x1 = 0.2999	–	991.88	983.29	–	1552.5	1517.9	38.7	–	4.386	3.311
x1 = 0.4002	–	989.14	980.53	–	1527.9	1493.2	37	–	3.553	2.734
x1 = 0.4999	–	985.23	976.53	–	1502.9	1467	35.9	–	2.733	2.183
x1 = 0.5996	–	982.08	973.35	–	1480.5	1443.8	34.9	–	2.322	1.884
x1 = 0.7002	–	981.06	972.34	–	1466.1	1429.5	34.5	–	1.99	1.659
x1 = 0.7999	–	980.46	971.78	–	1454.9	1418	35	–	1.775	1.503
x1 = 0.8997	–	980.14	971.5	1481.7	1444.2	1407.6	34.6	1.918	1.616	1.384
x1 = 1	989.34	980.76	972.16	1475	1437.6	1400.6	34.2	1.777	1.515	1.31
